Assay results published in PubChem BioAssay AID463203 (Broad Institute, 2010).
Activity calls are given as the source filed them.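 The calls were made as follows: active = more than half of replicate measurements showing over 20% loss of kinase signal relative to plate controls; inconclusive = some but at most half of replicates over 20% loss; inactive = no replicate over 20% signal loss.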

target: Glycogen synthase kinase-3 alpha (Homo sapiens) (UniProt P49840); assay: concentration-response blocking of human GSK3A – biochemical, luminescence, cell-free homogeneous, retest, dose response (AID 463203); details: GSK-3 alpha enzyme, ADP-Glo luminescence, 60 min
Sequence (P49840 whole entry, looked up): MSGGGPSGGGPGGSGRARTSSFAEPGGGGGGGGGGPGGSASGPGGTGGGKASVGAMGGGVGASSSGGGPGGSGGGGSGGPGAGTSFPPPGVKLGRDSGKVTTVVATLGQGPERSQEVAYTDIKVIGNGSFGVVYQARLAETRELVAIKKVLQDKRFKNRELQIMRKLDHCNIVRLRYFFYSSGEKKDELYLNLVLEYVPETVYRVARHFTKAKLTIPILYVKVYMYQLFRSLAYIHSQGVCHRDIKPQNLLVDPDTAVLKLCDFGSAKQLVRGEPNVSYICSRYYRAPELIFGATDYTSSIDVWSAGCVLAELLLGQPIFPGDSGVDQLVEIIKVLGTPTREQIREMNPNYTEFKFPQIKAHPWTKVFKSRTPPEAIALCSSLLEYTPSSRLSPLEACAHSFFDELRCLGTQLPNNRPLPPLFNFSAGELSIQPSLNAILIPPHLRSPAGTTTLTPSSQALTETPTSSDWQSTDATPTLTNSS

Q: How did the AC50 turn out when Cc1ccc(C)c(N2CC(C(=O)Nc3nccs3)CC2=O)c1 (configuration not stated) was run?
A: Its AC50 is > 30 µM (inactive).

Q: Which AC50 does the source give for CC1=[N+](C)c2ccc3ccccc3c2C1(C)C here?
A: The AC50 was > 30 µM (inactive).

Q: For N#CC1=C(N)Oc2n[nH]c(-c3cccnc3)c2C1c1cc(F)ccc1F (configuration not stated), which AC50 is on record?
A: Its AC50 is > 30 µM (inactive).

Q: NC(=O)NCC12CC3CC(CC(C3)C1)C2 was tested. Which AC50 did it give?
A: The AC50 was > 30 µM (inactive).

Q: For CC(=O)Nc1c(C)ccc2nsnc12, which AC50 is on record?
A: Its AC50 is > 30 µM (inactive).

Q: How did the AC50 turn out when COC(=O)c1c(C(C)=O)cnc2ccc(Br)cc12 was run?
A: The AC50 was > 30 µM (inactive).

Q: With Cc1ccccc1/C=N/Nc1nc2ccccc2[nH]1 as the compound, how does the AC50 read?
A: Its AC50 is > 30 µM (inactive).

Q: For O=c1[nH]c2c(s1)C(c1ccccc1)C1C3CCC(C3)C1S2 (configuration not stated), which AC50 is on record?
A: The AC50 was 1.98 µM.

Q: With CC(C)CCNc1nc(N)c([N+](=O)[O-])c(N2CCCCCC2)n1 as the compound, how does the AC50 read?
A: The AC50 was 8.86 µM.

Q: CCS(=O)(=O)N1CCN(c2ccnc3cc(Cl)ccc23)CC1 was tested. Which AC50 did it give?
A: Its AC50 is > 30 µM (inactive).

Q: How did the AC50 turn out when N#CC1=C2SCN(c3ccccc3)CN2C(=O)CC1c1c(Cl)cccc1Cl (configuration not stated) was run?
A: Its AC50 is > 30 µM (inactive).

Q: With Cc1ccnc(NC(=O)CCC(=O)N(CC(=O)NCc2ccc(F)cc2)Cc2ccco2)c1 as the compound, how does the AC50 read?
A: The AC50 was > 30 µM (inactive).

Q: For COc1ccc(/C=C/c2nc3ccccc3n2C)cc1, which AC50 is on record?
A: The AC50 was 11.4 µM.

Q: How did the AC50 turn out when O=c1[nH]c(=S)n(C2CC2)c(O)c1C=NCc1cccnc1 was run?
A: Its AC50 is 28.2 µM.

Q: For COc1ccc2c(c1)C(SCC(=O)NCc1ccccc1)CC(C)(C)O2 (configuration not stated), which AC50 is on record?
A: Its AC50 is > 30 µM (inactive).

Q: Which AC50 does the source give for CC(C)(C)C(=O)c1cnc(Nc2ccccc2Cl)s1 here?
A: Its AC50 is > 30 µM (inactive).

Q: How did the AC50 turn out when Cc1sc(NC(=S)NC(=O)C(C)(C)C)c(C(N)=O)c1C was run?
A: Its AC50 is > 30 µM (inactive).

Q: How did the AC50 turn out when CCCCc1ccc(NC(=O)N[C@H](C(=O)O)C(C)CC)cc1 (some centres not stated) was run?
A: The AC50 was > 30 µM (inactive).

Q: With CCCNc1nc(Cl)nc(Nc2ccc(Cl)cc2)n1 as the compound, how does the AC50 read?
A: Its AC50 is > 30 µM (inactive).

Q: How did the AC50 turn out when CCOc1ccc2nnc(-c3ccc(Br)cc3)n2n1 was run?
A: Its AC50 is > 30 µM (inactive).

Q: COC(=O)c1cc(OC)nc2ccc(Br)cc12 was tested. Which AC50 did it give?
A: The AC50 was > 30 µM (inactive).

Q: For CN(C)CCCNS(=O)(=O)c1ccc(-n2nnc3ccccc32)c([N+](=O)[O-])c1, which AC50 is on record?
A: The AC50 was > 30 µM (inactive).

Q: For CCN(CC)C(=O)c1oc2ccc(S(=O)(=O)N3CCCCCC3)cc2c1C, which AC50 is on record?
A: The AC50 was > 30 µM (inactive).

Q: For CC(=O)Nc1n[nH]c(-c2ccc(C)cc2)c1C, which AC50 is on record?
A: Its AC50 is > 30 µM (inactive).

Q: With Cc1cc(C(C#N)c2cccc(Cl)c2)n2ncnc2n1 (configuration not stated) as the compound, how does the AC50 read?
A: The AC50 was 5.78 µM.

Q: With NCc1cccc(CNc2ccc([N+](=O)[O-])cc2C(N)=O)c1 as the compound, how does the AC50 read?
A: The AC50 was 5.96 µM.

Q: CNc1nc(Cl)c(SC)c(NC2CCCCC2)n1 was tested. Which AC50 did it give?
A: Its AC50 is > 30 µM (inactive).

Q: With CCOC(=O)N1CCC(N2CCN(S(=O)(=O)c3ccc(Cl)cc3)CC2)CC1 as the compound, how does the AC50 read?
A: The AC50 was > 30 µM (inactive).

Q: Which AC50 does the source give for COc1cccc2c1C(=O)O/C2=C/c1ccc2c(c1)OCO2 here?
A: The AC50 was > 30 µM (inactive).

Q: Which AC50 does the source give for CC1=C(C(=O)OCc2ccc3c(c2)OCO3)C(c2ccc(F)cc2)NC(=O)N1 (configuration not stated) here?
A: The AC50 was 20.3 µM.

Q: Which AC50 does the source give for CN(C)c1ccc(/C=N/NC(=O)c2ccc(Cl)cc2)cc1 here?
A: The AC50 was > 30 µM (inactive).

Q: For N#Cc1c2c(c(NCc3ccco3)n3c1nc1ccccc13)CCC2, which AC50 is on record?
A: The AC50 was > 30 µM (inactive).

Q: Nc1cc(C(=O)O)c(N)c2c1C(=O)c1ccccc1C2=O was tested. Which AC50 did it give?
A: The AC50 was 7.46 µM.

Q: Which AC50 does the source give for O=C1Nc2ccccc2Sc2ccccc21 here?
A: The AC50 was > 30 µM (inactive).

Q: Which AC50 does the source give for COc1cc(/C=C2/NC(=O)NC2=O)cc(Br)c1OCc1cccc(C(=O)O)c1 here?
A: The AC50 was 6.54 µM.

Q: How did the AC50 turn out when CCOc1cccc(-c2c(C(=O)N/N=C(\C)c3ccncc3)nnn2-c2nonc2N)c1 was run?
A: Its AC50 is 1.45 µM.

Q: COc1ccc(NC(=O)Nc2ccccc2F)c(C)c1 was tested. Which AC50 did it give?
A: Its AC50 is > 30 µM (inactive).

Q: How did the AC50 turn out when COc1ccc(CCNc2ccc(S(=O)(=O)N3CCCC3)cc2[N+](=O)[O-])cc1 was run?
A: Its AC50 is > 30 µM (inactive).

Q: With N#Cc1c(Nc2ccccc2)c(/C=N/N=C/c2ccccc2)c[nH]c1=O as the compound, how does the AC50 read?
A: The AC50 was > 30 µM (inactive).

Q: For N#C/C(=N\Nc1c(Cl)cccc1Cl)C(=O)NN, which AC50 is on record?
A: The AC50 was 5.86 µM.

Q: Which AC50 does the source give for CC1(C)Cc2c(sc3ncn(N)c(=N)c23)CO1 here?
A: Its AC50 is > 30 µM (inactive).

Q: With COc1ccc(OC)c(/C=C2\Oc3cc(OCC(=O)N4CCC[C@H]4C(=O)O)ccc3C2=O)c1 as the compound, how does the AC50 read?
A: Its AC50 is > 30 µM (inactive).

Q: Which AC50 does the source give for COc1cc(/C=N/c2oc(C)c(C)c2C#N)cc(Br)c1O here?
A: The AC50 was > 30 µM (inactive).

Q: For CCN1C(=S)SC(=O)C1=C1C=C(C)N(Cc2ccco2)C(C)=C1, which AC50 is on record?
A: The AC50 was > 30 µM (inactive).

Q: For COC(=O)C1=C(C)Nc2ncnn2C1c1ccccn1 (configuration not stated), which AC50 is on record?
A: The AC50 was > 30 µM (inactive).

Q: Cc1nc(NC(=O)c2ccccc2)sc1Cc1ccc2c(c1)OCO2 was tested. Which AC50 did it give?
A: The AC50 was > 30 µM (inactive).

Q: For Cc1nn(-c2ccccc2)c(C)c1/C=C/C(=O)OCC(=O)Nc1ccc(C(N)=O)cc1, which AC50 is on record?
A: Its AC50 is > 30 µM (inactive).

Q: O=C1CCCC2=C1C(c1cccc(O)c1)c1c(ccc3ncccc13)N2 (configuration not stated) was tested. Which AC50 did it give?
A: The AC50 was > 30 µM (inactive).

Q: With O=C(Nc1ccsc1C(=O)O)c1ccc(Cl)cc1 as the compound, how does the AC50 read?
A: Its AC50 is > 30 µM (inactive).

Q: With Cc1cnn(-c2cc(N/N=C/c3ccccc3)ncn2)c1 as the compound, how does the AC50 read?
A: Its AC50 is > 30 µM (inactive).

Q: For CCC(Sc1ccc2nnc(-c3cccnc3)n2n1)C(=O)O (configuration not stated), which AC50 is on record?
A: The AC50 was > 30 µM (inactive).

Q: How did the AC50 turn out when O=C1c2ccccc2C(=O)c2c(Nc3ccc(CCO)cc3)ccc(O)c21 was run?
A: Its AC50 is > 30 µM (inactive).

Q: With C/C(=N\NC(=O)c1nnn(-c2nonc2N)c1-c1cccs1)c1cccnc1 as the compound, how does the AC50 read?
A: The AC50 was 1.33 µM.

Q: COc1ccccc1C(=O)NNC(=O)c1cccc(Cl)c1 was tested. Which AC50 did it give?
A: Its AC50 is > 30 µM (inactive).

Q: With Clc1ccccc1C1=Nn2c(nnc2-c2ccncc2)SC1 as the compound, how does the AC50 read?
A: Its AC50 is 2.35 µM.

Q: Cc1cccc(OCC(=O)N2CCN(c3nnc(-c4ccccc4)c4ccccc34)CC2)c1 was tested. Which AC50 did it give?
A: The AC50 was > 30 µM (inactive).

Q: For O=c1[nH]c2c(s1)C(c1ccc(O)cc1)C1C3CCC(C3)C1S2 (configuration not stated), which AC50 is on record?
A: The AC50 was 0.649 µM.

Q: CCOc1cc(-c2nc3c(C)cccn3c2NCC2CCCO2)ccc1O (configuration not stated) was tested. Which AC50 did it give?
A: Its AC50 is > 30 µM (inactive).

Q: NC(=O)c1cc([N+](=O)[O-])ccc1NCc1cccc(N)c1 was tested. Which AC50 did it give?
A: The AC50 was 15.6 µM.

Q: For Nc1ncc(-c2ccccc2)c(-c2ccc(OCc3ccccc3)cc2O)n1, which AC50 is on record?
A: Its AC50 is > 30 µM (inactive).

Q: How did the AC50 turn out when Cc1ccc(-c2c3c(nc4sc(C(N)=O)c(N)c24)CCC3)cc1 was run?
A: The AC50 was 5.39 µM.

Q: With COc1ccc2c3c(cccc13)C(=O)CC2 as the compound, how does the AC50 read?
A: The AC50 was > 30 µM (inactive).

Q: With CCOC(=O)/C(C#N)=C/c1cn(CCC(=O)O)nc1-c1cccc(Br)c1 as the compound, how does the AC50 read?
A: Its AC50 is > 30 µM (inactive).

Q: For COC(=O)c1c(C)c(OC(=O)c2c(C)cc(O)c(C=O)c2O)cc(C)c1O, which AC50 is on record?
A: The AC50 was > 30 µM (inactive).

Q: Which AC50 does the source give for Clc1ccc(/C=N/Nc2ncnc3ccccc23)cc1Cl here?
A: Its AC50 is > 30 µM (inactive).

Q: How did the AC50 turn out when Clc1ccc(C2=Nn3c(nnc3-c3cccs3)SC2)cc1 was run?
A: Its AC50 is > 30 µM (inactive).

Q: Nc1nonc1-n1nnc(C(=O)N/N=C/c2ccco2)c1-c1ccccc1 was tested. Which AC50 did it give?
A: Its AC50 is 18.5 µM.

Q: How did the AC50 turn out when CCOC(=O)c1cc(-c2ccc(F)cc2)n(CC(=O)NCc2cccnc2)c1C was run?
A: Its AC50 is > 30 µM (inactive).

Q: With COc1cccc(-n2c(SCC(=O)NC3CCCC3)nnc2-c2ccco2)c1 as the compound, how does the AC50 read?
A: The AC50 was > 30 µM (inactive).

Q: For CC1(C)Cc2c(sc3c2C2=NCCN2C=N3)CO1, which AC50 is on record?
A: The AC50 was > 30 µM (inactive).

Q: How did the AC50 turn out when CCCNC(=O)NC(C)C12CC3CC(CC(C3)C1)C2 (configuration not stated) was run?
A: The AC50 was > 30 µM (inactive).

Q: How did the AC50 turn out when COC(=O)C1CSc2[nH]c(=O)sc2C1c1ccc(O)c(OC)c1 (configuration not stated) was run?
A: Its AC50 is > 30 µM (inactive).

Q: With COC(=O)CCCCCCCCC(O)CN(C)C (configuration not stated) as the compound, how does the AC50 read?
A: Its AC50 is > 30 µM (inactive).

Q: How did the AC50 turn out when CC(=O)c1cc(-c2ccc(F)cc2)n(CCC(=O)NC(C)(C)C)c1C was run?
A: Its AC50 is > 30 µM (inactive).

Q: CC(C)CC(O)C1CCN(C(=O)CCc2nnc(-c3ccc4c(c3)OCO4)o2)CC1 (configuration not stated) was tested. Which AC50 did it give?
A: The AC50 was > 30 µM (inactive).

Q: How did the AC50 turn out when CCOC(=O)c1[nH]c2c(c1-c1ccccc1)C(=O)CC(c1ccccc1)C2 (configuration not stated) was run?
A: The AC50 was > 30 µM (inactive).

Q: CC1(C)CC(=O)C(C=NCCc2ccc(O)cc2)=C(O)C1 was tested. Which AC50 did it give?
A: Its AC50 is > 30 µM (inactive).
